Data as given in patent US8865741B2, “Aminoindane compounds and use thereof in treating pain” (Asana Biosciences, LLC, priority 2011, dated 2014).

Columns and labels:
[1] = molecular target: T1, human Nav1.5 sodium channel (Homo sapiens, UniProt Q14524); assay: Inhibition of sodium channel response in hNav1.5-HEK293 cells (FLIPR, veratridine); type: cell-based; conditions: for IC50: average, read-out: HEK Nav 1.5 IC50 (μM) (AVG); for inhibition at 10 min, 0.5 mM / inhibition at 10 min, 1.5 mM: human, HEK-293 cells expressing human Nav1.5 (hNav1.5-HEK-293), pH 7.4; for inhibition at 10 min, 0.5 mM: read-out: HEK Nav 1.5 % inh. @ 0.5 mM; for inhibition at 10 min, 1.5 mM: read-out: HEK Nav 1.5 % inh. @ 1.5 mM
T1 construct: host or cells: HEK-293
Experimental: C. Method for Assessing the Extent of Inhibition of Sodium Channel Response with Compounds in hNav1.5-HEK293 Cells.
The following assay was used to assess the tendency of the test compounds to block the dominant cardiac sodium channel isoform. Nav1.5 sodium channels are known to be permeable to quaternary sodium channel blockers such as QX-314 and, thus, the assay was performed in the absence of a chemical TRPV1 agonist.
The hNav1.5-HEK-293 cells (CreaCell, France, a human embryonic kidney cell line expressing the human Nav1.5 sodium channel) were cultured in Growth medium (containing 1×DMEM (Gibco)+10% FBS (PAA Gold)+2% Glutamine 100 mM (Gibco)+1% penicillin 10,000 U/mL streptomycin 10,000 μg/mL (Invitrogen)+1.2 mg/mL Geneticin G418 (Invitrogen)) in […] cell bind flasks (Corning). The following steps were followed exactly as mentioned. The spent medium was discarded and the cells rinsed once with PBS-1×. Accutase® (1-2 mL; PAA) solution was added. The plate was placed on a 37° C. warming incubator 3-5 minutes. As soon as cells are detached, 37° C. complete medium (9 mL) was added. The cell suspension was drawn into a sterile pipette and cells homogenized gently to dissociate cell aggregates. The cells were counted using a hemocytometer with Blue Trypan and then centrifuged 5 minutes at 400 g. The cells can be amplified or maintained by seeding […] in a T75 flask (final volume: 15 mL). 8000 cells in 50 μL Growth medium was added to each well of 384-well, clear bottomed, sterile poly-D-lysine coated plates with lid (Greiner-bio one) inside the laminar air-flow. The plates were incubated at 37° C. and 5% CO2 in a CO2 incubator (Thermo) for 48 hours.
On the day of the assay, cells were washed with Assay buffer, which was prepared using the components and amounts in Table 4. The pH was adjusted to 7.4 with NaOH, volume made up to 500 mL with Milli-Q® water.
Assay Buffer was added to the cells and incubated at rt (25° C.) for 10 minutes. The compounds were diluted in assay buffer. The compounds were added and incubated at rt (25° C.) for 10 minutes. Red FMP Dye (MDC) was added to the cells and the plate was incubated at rt (25° C.) for 30 minutes. Veratridine stock (20 mM; Sigma) was prepared in DMSO; veratridine (final concentration of 30 μM) in assay buffer was added to each well of the cell seeded plates in the FLIPR® system and read taken for 10 minutes. Table 5 provides data illustrating the sodium channel activity of the test compounds in response to the presence or absence of heat stimulation in cells expressing hTRPV1. The compounds were tested for differential activity at 25° C. and 47° C. and at two test concentrations. Compounds showing the most promising profiles were further evaluated for IC50 in the 47° C. assay, examples are shown in Table 5.

[2] = tested on: sodium channel in hTRPV1-N1E115 cells; assay: FLIPR membrane potential assay of sodium channel response in hTRPV1-N1E115 cells, with (47° C.) or without (25° C.) heat activation of hTRPV1; type: cell-based; conditions: for hTRPV1-N1E Nav (% inhibition) 25° C., tested at 0.5 mM / hTRPV1-N1E Nav (% inhibition) 47° C., tested at 0.5 mM: 0.5 mM (stated in cell, column head 0.1 mM); for hTRPV1-N1E Nav (% inhibition) 47° C., tested at 0.5 mM / IC50: 47° C.; for IC50: class symbols, read-out: hTRPV1-N1E IC50 (μM) 47° C.
Text: In one embodiment, a modified FLIPR® (Fluorometric Imaging Plate Reader) based assay system was developed which is capable of discriminating between non-specific versus hTRPV1-mediated entry of test compounds. Advantageously, the assay system utilizes heat activated opening of hTRPV1 channels followed by an assessment of internal sodium channel block. The assay allows a permanently charged compound to selectively enter through opened hTRPV1 channels and that compound's potency in inhibiting sodium channels from the cytoplasm side of the same cell can be assessed and quantified.
The assay is readily performed in multi-well assay plates into which cells in growth media are added and incubated under conditions which permit the formation of a confluent monolayer over a period of hours prior to the start of the assay. Conventional culture media and conditions may be utilized. Duplicate cell assay plates are prepared for each experiment.
The spent media from the cell seeded plates is removed on the day of the assay and replaced with Membrane potential Dye-Blue (Molecular Devices). The dye was prepared in assay buffer following manufacturer's instructions. The dye-loaded plate is incubated at room temperature (about 25° C.) for about 30 minutes in order to pre-load the cells with dye. Optionally, the cells may be loaded with the dye simultaneously with adding the test compounds.
The test compounds are diluted in the Assay Buffer and added to each well of a specific 384-well ‘compound plate’, which serves as a source plate for compound addition using the FLIPR® platform. The concentration of compounds in the compound-plate was adjusted to achieve the desired final concentration when added to the cells in the ‘cell-plate’. After completion of the dye incubation period, the dye loaded cell-plates and the compound source plates are inserted into the FLIPR® Tetra™ device with a 384 FLIPR® tip box (Molecular Devices, Inc.) according to manufacturer's instructions. The compounds are robotically added to the dye loaded cell-plates using software integral to the FLIPR® Tetra™ instrument.
Immediately following compound addition, hTRPV1 is activated, in one of the duplicate cell plates, by heating. Specifically, entire multi-well plate containing the compound-cells mixture is incubated at 47° C. for 10 minutes, after which they are returned to room temperature (about 25° C.) for a further 30 minutes. Heat activation of hTRPV1 was omitted from the replicate cell plate which was simply maintained at room temperature for the entire 40 minutes.
A membrane potential response is elicited in the dye- and compound-loaded cells by the addition of veratridine which is a known sodium channel ‘agonist’. As illustrated in an example herein, an agonist plate containing veratridine (Sigma) is prepared in advance and is inserted into suitable devices such as, e.g., the FLIPR® TETRA® device for a “2nd addition” as instructed by the manufacturer. The concentration of veratridine in the ‘agonist plate’ was adjusted to achieve a final concentration of 100 μM when added to the cells in the cell-plate. Final concentrations of veratridine greater or lesser than 100 μM may also be used but the signal measured by the FLIPR®^Tetra™ device or another suitable device may vary accordingly.
The exposure of the cells in the cell-plate to veratridine induces sodium channels in the cells to open and the resulting ion flux produces a membrane potential depolarization that is detected as a fluorescence signal by the FLIPR® ^Tetra™ Device. The activity of test compounds is determined by their ability to attenuate the veratridine-induced fluorescence signal, the most promising compounds are those that show an enhanced activity in the heat-activated cell plate over the non-heat-activated cell plate. […]

[3] = tested on: Male Sprague Dawley (SD) rats; assay: In vivo assay of mechanical nociception (rat pinch model, perisciatic injection); conditions: test compound 0.5%, lidocaine 2%, total injection 100 μL, perisciatic
[4] = tested on: rats; assay: Cutaneous anesthetic activity, cutaneous trunci muscle reflex (CTMR) pin-prick model; type: in vivo, rat; conditions: 100 μL lidocaine (2%) alone, sub-cutaneous
Experimental: Rats were subjected to several days of acclimatization to the environment and the investigator prior to entering the study. About 24 hours before each experiment, the skin on the back of male rats was shaved using electronic clippers. The anesthetic action of test agents, following subcutaneous injection was determined using a “pin-prick” method as described by Khan (Khan et al., Anesthesiology, January 2002, 96(1): 109-116). Injection volumes were standardized at 100 μL, each injection caused a small wheal to develop—the boundary of which was marked with ink. The cutaneous trunci muscle reflex (CTMR) is a reflex movement of the skin due to twitches of the lateral thoracospinal muscles elicited by noxious stimulation of the dorsal cutaneous area. An 18-guage needle was used as the noxious stimulus; six stimuli were presented to an area of ‘normal’ skin to determine baseline sensitivity and this was then repeated in the area of the wheal. […] Data were represented as % maximal possible effect (MPE) where 100% indicates complete lack of response to each of the six needle presentations in the injected area. The extent of local anesthesia was assessed at regular intervals in order to generate efficacy-duration time plots.

[5] = 25° C. (no heat activation of hTRPV1)

T1 sequence (Q14524 whole entry): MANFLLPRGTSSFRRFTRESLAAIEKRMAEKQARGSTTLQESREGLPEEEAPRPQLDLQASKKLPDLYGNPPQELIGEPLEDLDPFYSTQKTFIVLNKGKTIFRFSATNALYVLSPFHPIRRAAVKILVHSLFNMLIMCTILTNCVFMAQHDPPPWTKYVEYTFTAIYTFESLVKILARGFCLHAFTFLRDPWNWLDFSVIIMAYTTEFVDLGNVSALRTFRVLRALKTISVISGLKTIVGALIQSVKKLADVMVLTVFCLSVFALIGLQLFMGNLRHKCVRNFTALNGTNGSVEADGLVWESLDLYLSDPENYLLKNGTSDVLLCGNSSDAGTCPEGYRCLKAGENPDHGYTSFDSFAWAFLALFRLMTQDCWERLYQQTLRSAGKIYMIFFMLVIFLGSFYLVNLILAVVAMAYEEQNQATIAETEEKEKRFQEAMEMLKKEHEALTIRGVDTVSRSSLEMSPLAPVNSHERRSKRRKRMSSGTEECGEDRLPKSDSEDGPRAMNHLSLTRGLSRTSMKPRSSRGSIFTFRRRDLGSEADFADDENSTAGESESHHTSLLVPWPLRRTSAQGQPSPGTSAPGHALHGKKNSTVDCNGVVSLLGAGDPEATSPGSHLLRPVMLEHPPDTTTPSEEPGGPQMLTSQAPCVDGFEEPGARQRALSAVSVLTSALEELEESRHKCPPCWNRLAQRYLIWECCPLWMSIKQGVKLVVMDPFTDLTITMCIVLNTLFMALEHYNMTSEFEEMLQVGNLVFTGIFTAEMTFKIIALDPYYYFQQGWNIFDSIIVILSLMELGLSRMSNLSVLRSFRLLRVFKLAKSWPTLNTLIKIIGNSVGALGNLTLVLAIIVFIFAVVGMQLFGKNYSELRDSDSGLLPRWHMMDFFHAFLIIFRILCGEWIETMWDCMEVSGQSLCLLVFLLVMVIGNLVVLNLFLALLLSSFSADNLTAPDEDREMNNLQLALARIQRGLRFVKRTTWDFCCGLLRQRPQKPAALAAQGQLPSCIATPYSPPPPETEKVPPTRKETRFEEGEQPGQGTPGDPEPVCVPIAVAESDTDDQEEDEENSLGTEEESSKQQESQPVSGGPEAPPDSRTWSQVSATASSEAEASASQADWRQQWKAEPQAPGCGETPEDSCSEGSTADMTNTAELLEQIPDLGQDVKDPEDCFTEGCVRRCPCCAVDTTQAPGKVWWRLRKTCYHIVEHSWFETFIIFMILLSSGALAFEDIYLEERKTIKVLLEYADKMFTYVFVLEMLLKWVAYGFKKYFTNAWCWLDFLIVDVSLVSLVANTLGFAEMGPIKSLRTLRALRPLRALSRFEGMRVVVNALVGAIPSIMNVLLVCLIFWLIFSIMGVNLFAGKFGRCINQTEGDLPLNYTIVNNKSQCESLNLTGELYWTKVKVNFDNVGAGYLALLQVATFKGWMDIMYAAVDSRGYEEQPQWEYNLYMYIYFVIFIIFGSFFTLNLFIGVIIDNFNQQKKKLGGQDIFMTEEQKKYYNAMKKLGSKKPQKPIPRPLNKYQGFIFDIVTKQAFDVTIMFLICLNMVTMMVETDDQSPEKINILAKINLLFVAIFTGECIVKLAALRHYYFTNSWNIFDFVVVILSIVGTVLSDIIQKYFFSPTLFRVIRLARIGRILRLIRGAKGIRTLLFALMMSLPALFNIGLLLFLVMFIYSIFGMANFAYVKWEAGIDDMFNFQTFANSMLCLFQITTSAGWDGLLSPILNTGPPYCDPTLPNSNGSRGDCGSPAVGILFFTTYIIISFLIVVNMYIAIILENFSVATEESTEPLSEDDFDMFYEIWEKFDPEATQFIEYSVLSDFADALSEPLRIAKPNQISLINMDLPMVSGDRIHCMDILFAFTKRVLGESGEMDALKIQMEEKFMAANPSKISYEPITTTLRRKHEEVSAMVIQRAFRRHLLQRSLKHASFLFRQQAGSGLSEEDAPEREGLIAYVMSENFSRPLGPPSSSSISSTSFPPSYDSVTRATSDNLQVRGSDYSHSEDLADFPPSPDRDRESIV

IC50 [2] | SMILES | IC50 [1] | inhibition at 10 min, 0.5 mM [1] | inhibition at 10 min, 1.5 mM [1] | hTRPV1-N1E Nav (% inhibition) 25° C., tested at 0.5 mM [2] | hTRPV1-N1E Nav (% inhibition) 47° C., tested at 0.5 mM [2] | hTRPV1-N1E Nav 1 mM (% inhibition) 25° C. [2, 5] | Average Time of Analgesia [3] | hTRPV1-N1E Nav 0.1 mM (% inhibition) 25° C. ([2]; 0.1 mM, 25° C. (no heat activation of hTRPV1)) | hTRPV1-N1E Nav 0.1 mM (% inhibition) 47° C. ([2]; 0.1 mM, 47° C. (heat activation of hTRPV1)) | time of return of analgesia to baseline [4] | analgesia (% maximal possible effect) reached ([4]; for around 0.5 hours post injection)
10 to 100 µM | C[N+]1(C)CCCC[C@@H]1CCN(c1ccccc1)C1Cc2ccccc2C1.[I-] [Example 10, (R)-1,1-Dimethyl-2-[2-((indan-2-yl)(phenyl)amino)ethyl]piperidinium iodide] | 667 µM | 76.1% | 97.6% | 24% | 91 (N = 2, 0.5 mM) % | 6.5 (N = 2) % | – | – | – | – | –
10 to 100 µM | CC[N+]1(CC)CCCC[C@@H]1CCN(c1ccccc1)C1Cc2ccccc2C1.[I-] [Example 11, (R)-1,1-Diethyl-2-[2-((indan-2-yl)(phenyl)amino)ethyl]piperidinium iodide] | 44 µM | 97.9% | 97.8% | – | – | 71 (N = 2) % | 7 h | 0% | 72% | – | –
10 to 100 µM | C[N+]1(C)CCCC[C@H]1CCN(c1ccccc1)C1Cc2ccccc2C1.[I-] [Example 9, (S)-1,1-Dimethyl-2-[2-((indan-2-yl)(phenyl)amino)ethyl]piperidinium iodide] | 647 µM | 72.4% | 97.2% | 16% | 77 (N = 2, 0.5 mM) % | – | 5 h | – | – | – | –
– | CCN(CC)CC(=O)Nc1c(C)cccc1C [lidocaine] | – | – | – | – | – | – | – | – | – | around 2 hours | 100%
